What was measured:
[1] = tested on: AMBEL (Ragweed, Common); assay: Preemergence herbicidal evaluation; format: in vivo, Ambrosia artemisifolia; settings: preemergence, rated 4-5 weeks after treatment, 0-9 scale
Procedure, shortened: (§1)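 Seeds were planted in potting soil in cups, then sprayed preemergence with the test compound in aqueous acetone at about 0.0156 to 0.500 kg per hectare. Cups were kept under greenhouse conditions and visually rated 4–5 weeks after treatment on a 0–9 scale against an untreated control.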

[2] = tested on: CYPSE (Flatsedge); assay: Postemergence weed control under flooded paddy conditions; format: in vivo, Cyperus serotinus; settings: postemergence weeds, rated 3 to 4 weeks after treatment
Procedure, shortened: (§2)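 Containers holding 3–5 cm weeds and rice at 1.5–2.5 leaves are flooded to 1.5–3 cm above soil. Compound in 50/50 v/v aqueous/acetone is then added directly to the water, about 0.0313–0.500 kg/ha. Plants are kept in the greenhouse and rated 0–9 visually at 3–4 weeks.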

[3] = tested on: CYPIR (Rice Flatsedge); assay: as above; format: in vivo, Cyperus iria; settings: postemergence weeds, rated 3 to 4 weeks after treatment
Procedure, shortened: as §2

[4] = tested on: SETVI (Foxtail, Green); assay: Preemergence herbicidal evaluation; format: in vivo, Setaria viridis; settings: preemergence, rated 4-5 weeks after treatment, 0-9 scale
Procedure, shortened: as §1

[5] = tested on: SAGPY (Arrowhead (Pygmaea)); assay: Postemergence weed control under flooded paddy conditions; format: in vivo, Sagittaria pygmaea; settings: postemergence weeds, rated 3 to 4 weeks after treatment
Procedure, shortened: as §2

[6] = tested on: MOOVA (Monochoria); assay: Preemergence weed control under flooded paddy conditions; format: in vivo, Monochoria vaginalis; settings: rated 3-4 weeks after treatment
Procedure, shortened: (§3)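 Values are visual 0-9 scores against a control for a preemergence application into paddy flood water at about 0.0313 to 0.500 kg/ha. Greenhouse duration was three to four weeks.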

[7] = tested on: ZEAMX (Corn, Field); assay: Postemergence herbicidal evaluation; format: in vivo, Zea mays; settings: postemergence
Procedure, shortened: (§4)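 Young plants, roughly two weeks from seeding, receive the active ingredient as a sprayed dispersion (acetone/water 50/50, 0.5% TWEEN 20) at 40 psi. Doses span about 0.0156 to 0.500 kg/ha. A visual score from 0 to 9 compares treated with control plants four to five weeks on.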

[8] = tested on: ORYSAT (Rice, Tebonnet); assay: Postemergence herbicidal evaluation; format: in vivo, Oryza sativa, (L.) Tebonnet; settings: postemergence
Procedure, shortened: as §4

[9] = tested on: CHEAL (Lambsquarters, Common); assay: Postemergence herbicidal evaluation; format: in vivo, Chenopodium album; settings: postemergence
Procedure, shortened: as §4

[10] = tested on: CASOB (Sicklepod); assay: Postemergence herbicidal evaluation; format: in vivo, Cassia obtusifolia; settings: postemergence
Procedure, shortened: as §4

[11] = tested on: CYPSE (Flatsedge); assay: Preemergence weed control under flooded paddy conditions; format: in vivo, Cyperus serotinus; settings: rated 3-4 weeks after treatment
Procedure, shortened: as §3

[12] = tested on: GLXMAW (Soybean, Williams); assay: Preemergence herbicidal evaluation; format: in vivo, Glycine max, (L.) Merr. cv Williams; settings: preemergence, rated 4-5 weeks after treatment, 0-9 scale
Procedure, shortened: as §1

[13] = tested on: GALAP (Galium); assay: Postemergence herbicidal evaluation; format: in vivo, Galium aparine; settings: postemergence
Procedure, shortened: as §4

[14] = tested on: ORYSAT (Rice, Tebonnet); assay: Preemergence herbicidal evaluation; format: in vivo, Oryza sativa, (L.) Tebonnet; settings: preemergence, rated 4-5 weeks after treatment, 0-9 scale
Procedure, shortened: as §1

SMILES: C=CCN1C(=O)C(CC(=O)OC(C)C(=O)OCC)SC1=Nc1cc(-n2c(=O)ccn(C)c2=O)c(F)cc1Cl [Compound 94, 3-Allyl-2-{{2-chloro-5-[3,6-dihydro-3-methyl-2,6-dioxo-1(2H)-pyrimidinyl]-4-fluorophenyl}imino}-4-oxo-5-thiazolidineacetic acid, ester with ethyl lactate, (R,S)-]
- AMBEL rating ([1]; 0.0156 kg/ha): 0.0
- AMBEL rating ([1]; 0.0313 kg/ha): 0.0
- AMBEL rating ([1]; 0.0625 kg/ha): 4.0
- AMBEL rating ([1]; 0.1250 kg/ha): 9.0
- AMBEL rating ([1]; 0.2500 kg/ha): 9.0
- Herbicidal rating CYPSE ([2]; Rate 0.1250 kg/ha): 6.0
- Herbicidal rating CYPSE ([2]; Rate 0.2500 kg/ha): 9.0
- Herbicidal rating CYPIR ([3]; Rate 0.0313 kg/ha): 0.0
- Herbicidal rating CYPIR ([3]; Rate 0.0625 kg/ha): 3.0
- Herbicidal rating CYPIR ([3]; Rate 0.1250 kg/ha): 4.0
- Herbicidal rating CYPIR ([3]; Rate 0.2500 kg/ha): 4.0
- SETVI rating ([4]; 0.0156 kg/ha): 0.0
- SETVI rating ([4]; 0.0313 kg/ha): 0.0
- SETVI rating ([4]; 0.0625 kg/ha): 0.0
- SETVI rating ([4]; 0.1250 kg/ha): 4.0
- SETVI rating ([4]; 0.2500 kg/ha): 9.0
- Herbicidal rating SAGPY ([5]; Rate 0.0313 kg/ha): 0.0
- Herbicidal rating SAGPY ([5]; Rate 0.0625 kg/ha): 0.0
- Herbicidal rating SAGPY ([5]; Rate 0.1250 kg/ha): 5.0
- Herbicidal rating SAGPY ([5]; Rate 0.2500 kg/ha): 9.0
- MOOVA herbicidal effect rating ([6]; 0.0313 kg/ha): 9.0
- MOOVA herbicidal effect rating ([6]; 0.0625 kg/ha): 9.0
- MOOVA herbicidal effect rating ([6]; 0.1250 kg/ha): 9.0
- MOOVA herbicidal effect rating ([6]; 0.2500 kg/ha): 9.0
- ZEAMX herbicidal rating ([7]; rate 0.0158 kg/ha): 8.5
- ZEAMX herbicidal rating ([7]; rate 0.0315 kg/ha): 8.5
- ZEAMX herbicidal rating ([7]; rate 0.0630 kg/ha): 9.0
- ORYSAT herbicidal rating ([8]; rate 0.0158 kg/ha): 2.0
- ORYSAT herbicidal rating ([8]; rate 0.0315 kg/ha): 4.5
- ORYSAT herbicidal rating ([8]; rate 0.0630 kg/ha): 5.0
- CHEAL herbicidal rating ([9]; rate 0.0158 kg/ha): 9.0
- CHEAL herbicidal rating ([9]; rate 0.0315 kg/ha): 9.0
- CHEAL herbicidal rating ([9]; rate 0.0630 kg/ha): 9.0
- CASOB herbicidal rating ([10]; rate 0.0158 kg/ha): 0.0
- CASOB herbicidal rating ([10]; rate 0.0315 kg/ha): 3.0
- CASOB herbicidal rating ([10]; rate 0.0630 kg/ha): 9.0
- CYPSE herbicidal effect rating ([11]; 0.1250 kg/ha): 6.0
- CYPSE herbicidal effect rating ([11]; 0.2500 kg/ha): 9.0
- GLXMAW rating ([12]; 0.0156 kg/ha): 0.0
- GLXMAW rating ([12]; 0.0313 kg/ha): 0.0
- GLXMAW rating ([12]; 0.0625 kg/ha): 0.0
- GLXMAW rating ([12]; 0.1250 kg/ha): 0.0
- GLXMAW rating ([12]; 0.2500 kg/ha): 4.0
- GALAP herbicidal rating ([13]; rate 0.0158 kg/ha): 3.0
- GALAP herbicidal rating ([13]; rate 0.0315 kg/ha): 4.0
- GALAP herbicidal rating ([13]; rate 0.0630 kg/ha): 4.0
- ORYSAT rating ([14]; 0.0156 kg/ha): 0.0
- ORYSAT rating ([14]; 0.0313 kg/ha): 0.0
- ORYSAT rating ([14]; 0.0625 kg/ha): 0.0
- ORYSAT rating ([14]; 0.1250 kg/ha): 0.0
- ORYSAT rating ([14]; 0.2500 kg/ha): 3.0

SMILES: C=CCN1C(=O)C(CC(N)=O)SC1=Nc1cc(-n2c(=O)cc(C(F)(F)F)n(C)c2=O)c(F)cc1Cl (stereo not drawn) [Compound 99, 3-Allyl-2-{{2-chloro-5-[3,6-dihydro-3-methyl-2,6-dioxo-4-(trifluoromethyl)-1(2H)-pyrimidinyl]-4-fluorophenyl}imino}-4-oxo-5-thiazolidineacetamide]
- AMBEL rating ([1]; 0.0156 kg/ha): 0.0
- AMBEL rating ([1]; 0.0313 kg/ha): 0.0
- AMBEL rating ([1]; 0.0625 kg/ha): 4.0
- AMBEL rating ([1]; 0.1250 kg/ha): 9.0
- AMBEL rating ([1]; 0.2500 kg/ha): 9.0
- AMBEL rating ([1]; 0.5000 kg/ha): 9.0
- Herbicidal rating CYPSE ([2]; Rate 0.0313 kg/ha): 0.0
- Herbicidal rating CYPSE ([2]; Rate 0.0625 kg/ha): 0.0
- Herbicidal rating CYPSE ([2]; Rate 0.1250 kg/ha): 0.0
- Herbicidal rating CYPSE ([2]; Rate 0.2500 kg/ha): 0.0
- Herbicidal rating CYPSE ([2]; Rate 0.5000 kg/ha): 0.0
- Herbicidal rating CYPIR ([3]; Rate 0.0313 kg/ha): 0.0
- Herbicidal rating CYPIR ([3]; Rate 0.0625 kg/ha): 0.0
- Herbicidal rating CYPIR ([3]; Rate 0.1250 kg/ha): 0.0
- Herbicidal rating CYPIR ([3]; Rate 0.2500 kg/ha): 0.0
- Herbicidal rating CYPIR ([3]; Rate 0.5000 kg/ha): 0.0
- SETVI rating ([4]; 0.0156 kg/ha): 0.0
- SETVI rating ([4]; 0.0313 kg/ha): 1.0
- SETVI rating ([4]; 0.0625 kg/ha): 1.0
- SETVI rating ([4]; 0.1250 kg/ha): 6.0
- SETVI rating ([4]; 0.2500 kg/ha): 7.0
- SETVI rating ([4]; 0.5000 kg/ha): 9.0
- Herbicidal rating SAGPY ([5]; Rate 0.0313 kg/ha): 0.0
- Herbicidal rating SAGPY ([5]; Rate 0.0625 kg/ha): 0.0
- Herbicidal rating SAGPY ([5]; Rate 0.1250 kg/ha): 3.0
- Herbicidal rating SAGPY ([5]; Rate 0.2500 kg/ha): 4.0
- Herbicidal rating SAGPY ([5]; Rate 0.5000 kg/ha): 4.0
- MOOVA herbicidal effect rating ([6]; 0.0313 kg/ha): 9.0
- MOOVA herbicidal effect rating ([6]; 0.0625 kg/ha): 9.0
- MOOVA herbicidal effect rating ([6]; 0.1250 kg/ha): 9.0
- MOOVA herbicidal effect rating ([6]; 0.2500 kg/ha): 9.0
- MOOVA herbicidal effect rating ([6]; 0.5000 kg/ha): 9.0
- herbicidal rating ZEAMX ([7]; rate 0.0156 kg/ha): 5.0
- herbicidal rating ZEAMX ([7]; rate 0.0313 kg/ha): 6.0
- ZEAMX herbicidal rating ([7]; rate 0.0625 kg/ha): 7.5
- ZEAMX herbicidal rating ([7]; rate 0.1250 kg/ha): 8.0
- herbicidal rating ORYSAT ([8]; rate 0.0156 kg/ha): 4.0
- herbicidal rating ORYSAT ([8]; rate 0.0313 kg/ha): 4.5
- ORYSAT herbicidal rating ([8]; rate 0.0625 kg/ha): 5.5
- ORYSAT herbicidal rating ([8]; rate 0.1250 kg/ha): 6.5
- herbicidal rating CHEAL ([9]; rate 0.0156 kg/ha): 7.0
- herbicidal rating CHEAL ([9]; rate 0.0313 kg/ha): 7.0
- CHEAL herbicidal rating ([9]; rate 0.0625 kg/ha): 9.0
- CHEAL herbicidal rating ([9]; rate 0.1250 kg/ha): 9.0
- herbicidal rating CASOB ([10]; rate 0.0156 kg/ha): 4.0
- herbicidal rating CASOB ([10]; rate 0.0313 kg/ha): 7.0
- CASOB herbicidal rating ([10]; rate 0.0625 kg/ha): 8.0
- CASOB herbicidal rating ([10]; rate 0.1250 kg/ha): 9.0
- CYPSE herbicidal effect rating ([11]; 0.0313 kg/ha): 0.0
- CYPSE herbicidal effect rating ([11]; 0.0625 kg/ha): 0.0
- CYPSE herbicidal effect rating ([11]; 0.1250 kg/ha): 0.0
- CYPSE herbicidal effect rating ([11]; 0.2500 kg/ha): 0.0
- CYPSE herbicidal effect rating ([11]; 0.5000 kg/ha): 0.0
- GLXMAW rating ([12]; 0.0156 kg/ha): 0.0
- GLXMAW rating ([12]; 0.0313 kg/ha): 0.0
- GLXMAW rating ([12]; 0.0625 kg/ha): 3.0
- GLXMAW rating ([12]; 0.1250 kg/ha): 4.0
- GLXMAW rating ([12]; 0.2500 kg/ha): 7.0
- GLXMAW rating ([12]; 0.5000 kg/ha): 7.0
- herbicidal rating GALAP ([13]; rate 0.0156 kg/ha): 3.0
- herbicidal rating GALAP ([13]; rate 0.0313 kg/ha): 6.0
- GALAP herbicidal rating ([13]; rate 0.0625 kg/ha): 7.0
- GALAP herbicidal rating ([13]; rate 0.1250 kg/ha): 9.0
- ORYSAT rating ([14]; 0.0156 kg/ha): 0.0
- ORYSAT rating ([14]; 0.0313 kg/ha): 0.0
- ORYSAT rating ([14]; 0.0625 kg/ha): 1.0
- ORYSAT rating ([14]; 0.1250 kg/ha): 1.0
- ORYSAT rating ([14]; 0.2500 kg/ha): 4.0
- ORYSAT rating ([14]; 0.5000 kg/ha): 4.0

Reference: patent US20020137929A1, “1 - (3-heterocyclylphenyl) isothiourea, -isourea, -guanidine and -amidine herbicidal agents” (Intellectual Property Department, BASF Aktiengesellschaft, priority 1998, published 2002)
